For one assay, the target named is T1, P2X3 (UniProt P56373).
T1 sequence (P56373 1-397): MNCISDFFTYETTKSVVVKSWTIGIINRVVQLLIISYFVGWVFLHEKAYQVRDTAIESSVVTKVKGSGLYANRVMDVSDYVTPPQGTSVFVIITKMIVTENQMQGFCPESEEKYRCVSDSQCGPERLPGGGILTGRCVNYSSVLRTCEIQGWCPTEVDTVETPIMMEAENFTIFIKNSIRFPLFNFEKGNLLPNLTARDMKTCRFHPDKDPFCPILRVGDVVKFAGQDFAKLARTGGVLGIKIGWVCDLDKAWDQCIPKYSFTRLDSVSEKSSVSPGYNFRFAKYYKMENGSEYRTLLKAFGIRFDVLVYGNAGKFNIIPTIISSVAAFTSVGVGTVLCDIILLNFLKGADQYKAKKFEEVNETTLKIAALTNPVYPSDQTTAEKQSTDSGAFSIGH
The assay is described as follows: FLIPR intracellular calcium assay, P2X3. Type of assay: cell-based, human or rat. The note with it: agonist at EC75, species of receptor not given. The text has this: (§1) The FLIPR® assay utilizes cells which express human or rat P2X3 or P2X2/3 receptors. Recombinant cells expressing hP2X3 (Cat #6188) and hP2X2/3 (Cat #6179) were procured from Chantest Corp. Rat P2X2 (NCBI Accession No: U14414) was amplified by PCR from PC12 cDNA (a rat adrenal medulla cell line). The PCR product obtained containing the protein coding sequence of rat P2X2 was cloned into EcoRV-digested and dephosphorylated vector pIRES-puro3 within the multiple cloning site (MCS). See, FIG. 1A.
(§2) Cryo-vial containing 6×10^6 cells (human P2X3-HEK/human P2X2/3-TRex293/rat P2X2/3-TRex293/rat P2X3 TRex-CHO) was thawed in a 37° C. water bath. Cells were suspended in 20 mL of respective cell plating media (See annexure for composition) in a 50 mL centrifuge tube. The cell viability was checked with the help of Trypan Blue dye. Upon washing, cells were plated in a black 384-well clear bottomed, sterile poly-D-lysine coated plate such that, each well contained 10,000 cells (15,000/well for hP2X3) in 30 μL cell plating media. The plate was incubated in a 5% CO2 incubator at 37° C. for 24 h.
(§3) The next day, prior to the assay, the cell plating media was removed from each well by decanting and gentle tapping. Thirty μL of FLIPR Calcium 4 dye solution was added to each well. The plate was incubated at 37° C. for 45 min (60 min for hP2X3). The plate was next equilibrated at room temperature for 15 minutes before placing it in a 384 well FLIPR for the assay.
(§4) Compounds were dissolved in DMSO and serially diluted following 11 point half log (3.16 fold) dilution with a starting concentration of 2 mM. Dilutions were mixed with assay buffer just before performing the assay.
(§5) Compounds were added to the respective wells of the assay-ready cell plate with the help of the FLIPR and fluorescence readings were captured for 5 min to observe any possible agonistic property of the compounds. The plate was then incubated at room temperature for 15 min. The cells were stimulated with respective agonist EC75 concentration and the fluorescence readings were captured for another 5 min by FLIPR. The difference in fluorescence readings in presence of the compounds were compared with that of the control wells (wells having no compound) to calculate the inhibitory potency of the compounds. The IC50 values of the compounds were determined using the Graph pad Prism software.
Background: Calcium flux is commonly read through the fluorescence of an indicator in the cells.

A further assay concerns the target T2, P2X2/3 (UniProt P56373+Q9UBL9).
T2 construct: hP2X2/3 (Cat #6179)
T2 sequence (P56373 1-397): T1 sequence (P56373 1-397)
T2 sequence (Q9UBL9 1-471): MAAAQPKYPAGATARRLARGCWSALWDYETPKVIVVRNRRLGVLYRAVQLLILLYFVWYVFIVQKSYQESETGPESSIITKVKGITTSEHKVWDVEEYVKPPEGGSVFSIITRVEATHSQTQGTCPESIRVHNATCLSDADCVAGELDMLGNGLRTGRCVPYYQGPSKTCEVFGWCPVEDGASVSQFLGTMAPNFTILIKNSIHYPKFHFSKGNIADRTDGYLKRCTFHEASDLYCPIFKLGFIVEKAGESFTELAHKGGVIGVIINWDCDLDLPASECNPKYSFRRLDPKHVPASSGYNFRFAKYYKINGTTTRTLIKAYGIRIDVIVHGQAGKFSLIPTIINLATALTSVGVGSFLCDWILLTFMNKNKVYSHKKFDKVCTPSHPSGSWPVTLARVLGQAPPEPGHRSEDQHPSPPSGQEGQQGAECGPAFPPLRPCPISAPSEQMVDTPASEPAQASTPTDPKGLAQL
Description: FLIPR intracellular calcium assay, P2X2/3. The conditions noted are these: agonist at EC75, species of receptor not given. Type of assay: cell-based, human or rat.
Source text: as §1, §2, §3, §4, §5

Assay [1] has as its system acetic acid induced writhing (visceral pain). Description: Acetic acid induced writhing test. The note with it: mouse, oral gavage 20, 40 and 60 mg/kg, 30 min before i.p. acetic acid, counted 15 min. Type of assay: in vivo. How it is done:
Swiss albino mice of 30-40 g were included in the study. The mice were given an intraperitoneal injection of 0.7% v/v acetic acid solution at an injection volume of 10 mL/kg, 30 min after oral administration of vehicle or test article control. Test articles were administered, typically, at doses between 20 and 60 mg/kg. The mice were placed individually into glass chambers. The number of writhes produced in these animals was counted for 15 min following acetic acid administration. For scoring purposes writhing was indicated by stretching of the abdomen with simultaneous stretching of at least one hind limb. See, e.g., FIG. 4. Statistical analysis was done with One way ANOVA followed by Dunnett's multiple comparison tests. Comparison was done between treatment groups and vehicle with respect to total number of writhes and p<0.05 was considered statistically significant. Each group comprised of 6 animals.
A general note: In writhing tests, fewer writhes than in controls are read as antinociception.

Assay [2] concerns formalin-induced hind limb flinches. Description: Formalin induced pain (Automated Nociception Analyzer test). It counts as in vivo. The conditions noted are these: rat, oral gavage 100 mg/kg, 30 min before footpad formalin injection. How it is done:
Male Sprague Dawley rats of young adult age group and body weight range of 200-250 g were included in the study. Animals were housed under a 12 h light/dark cycle with food and water ad libitum. Animals were acclimatized in the observation chambers of Automated Nociception Analyzer (ANA) for 45-60 min, twice daily for two days prior to the study day. On the day of the study, metal bands were glued to the plantar surface of the right hind paw of each animal enrolled in the study set and kept in plastic observation chambers for 10-15 min. Formalin injection was done in the animals after 0.5 or 1 h of oral treatment with test compound or vehicle (20% polyethylene glycol, 1% TweenTM 80 reagent, 79% water). Formalin injection of the animals was done with 50 μL of 2.5% formalin (freshly prepared from formaldehyde solution, Sigma, USA, Cat # F8775) injected subcutaneously in to the dorsum of right hind paw. Animals were placed back to their respective recording chambers of ANA immediately after injection. […] count data for each animal was recorded from 1 to 60 min post formalin injection, using ANA motion analysis software. The study was analyzed in 2 phases, the early phase extended from 0-10 min and second phase extended from 11-60 min post formalin injection. The data was collected in 5 min time bins and the counts of each bin were added up for total count of the phase. […]

Broadly, the IC50 is the concentration at which inhibition is half-maximal.

As to `CCCCc1cnc2c(N3CCC(C)CC3)cc(C(=O)N[C@@H](C)c3nnc[nH]3)cn12` [Example 9, (S)—N-(1-(4H-1,2,4-Triazol-3-yl)ethyl)-3-butyl-8-(4-methylpiperidin-1-yl)imidazo[1,2-a]pyridine-6-carboxamide], the IC50 on P2X3 and at P2X2/3 was 1000 to 10000 nM throughout.

In the case of `CCc1cnnn1-c1cc(C(=O)NCc2ccc(C)nc2)cn2c(-c3ccc(C)s3)cnc12` [Example 22], the “pain responses (writhes) after acetic acid” value in assay [1] is given as “clear dose-related reduction”. Further, the “second phase flinching response to formalin” value in assay [2] was “attenuated”. On to `Cc1ccc(-c2cnc3c(Nc4ccccc4)cc(C(=O)NCc4ccc(C)[n+]([O-])c4)cn23)s1` [Example 89], for which the IC50 at P2X3 was 1 to 100 nM; at P2X2/3, 100 to 1000 nM. As for `CCCSc1cnc2c(N3CCC(C)CC3)cc(C(=O)NCc3ccc(C)[n+]([O-])c3)cn12` [Example 114], at P2X3, the IC50 fell in the range of 1 to 100 nM. As for `Cc1ccc(-c2cnc3c(N4CCC(C)CC4)cc(C(=O)NCc4ccc(C)[n+]([O-])c4)cn23)s1` [Example 117], the IC50 on P2X3 and on P2X2/3 was 1 to 100 nM in each case. As for `Cc1ccc(CNC(=O)c2cc(N3CCC(C)CC3)c3ncc(-c4ccc(Cl)s4)n3c2)c[n+]1[O-]` [Example 119], the values for the IC50 at P2X3 and on P2X2/3 were 1 to 100 nM and 100 to 1000 nM, respectively. For `Cc1ccc(-c2cnc3c(NC4CCCCC4)cc(C(=O)NCc4ccc(C)[n+]([O-])c4)cn23)s1` [Example 120], in that order: 1 to 100 nM and 1 to 100 nM. Take `Cc1ccc(-c2cnc3c(N4CCC(C)(C)CC4)cc(C(=O)NCc4ccc(C)[n+]([O-])c4)cn23)s1` [Example 122]: the IC50 on P2X3 and on P2X2/3 was 1 to 100 nM in each case. As for `Cc1ccc(-c2cnc3c(N4CCC(F)(F)CC4)cc(C(=O)NCc4ccc(C)[n+]([O-])c4)cn23)s1` [Example 123], the values for the IC50 on P2X3 and on P2X2/3 were more than 10000 nM and 1 to 100 nM, respectively. For `Cc1ccc(-c2cnc3c(NC4CCCCC4)cc(C(=O)NCc4ccc(C(F)(F)F)[n+]([O-])c4)cn23)s1` [Example 124], in that order: 100 to 1000 nM and 100 to 1000 nM. For `Cc1cnc(-c2cnc3c(N4CCC(C)CC4)cc(C(=O)NCc4ccc(C)[n+]([O-])c4)cn23)s1` [Example 125], in that order: 100 to 1000 nM and 100 to 1000 nM.

Take `Cc1ccc(-c2cnc3c(N(C)C4CCCCC4)cc(C(=O)NCc4ccc(C)[n+]([O-])c4)cn23)s1` [Example 126]: the IC50 is more than 10000 nM at P2X3 and 1 to 100 nM at P2X2/3. For `Cc1ccc(-c2cnc3c(N4CCC(F)CC4)cc(C(=O)NCc4ccc(C)[n+]([O-])c4)cn23)s1` [Example 127], in that order: more than 10000 nM and 1 to 100 nM.

Take `Cc1ccc(-c2cnc3c(N4CCC(C(F)(F)F)CC4)cc(C(=O)NCc4ccc(C)[n+]([O-])c4)cn23)s1` [Example 131]: the IC50 on P2X3 fell in the range of 1 to 100 nM; on P2X2/3, 100 to 1000 nM.

For the molecule `Cc1ccc(-c2cnc3c(N4CCC(CF)CC4)cc(C(=O)NCc4ccc(C)[n+]([O-])c4)cn23)s1` [Example 132], the IC50 on P2X3 and at P2X2/3 was 1 to 100 nM each time. For `Cc1ccc(-c2cnc3c(N4CCC(F)(F)CC4)cc(C(=O)N[C@@H](C)C4=NN=CC4)cn23)s1` [Example 143], the IC50 at P2X3 is 1000 to 10000 nM; at P2X2/3, 100 to 1000 nM. For `Cc1ccc(-c2cnc3c(N4CCC(C)CC4)cc(C(=O)NCc4ccc[n+]([O-])c4)cn23)s1` [Example 147], in that order: 1000 to 10000 nM and 100 to 1000 nM. Turning to `COc1ccc(CNC(=O)c2cc(-n3nnnc3C3CCC3)c3ncc(-c4ccc(C)s4)n3c2)cn1` [Example 163], the results for the IC50 at P2X3 and on P2X2/3 were more than 10000 nM and 1 to 100 nM, respectively. The like results for `Cc1ccc(-c2cnc3c(-n4nnnc4C4CCC4)cc(C(=O)N[C@@H](C)c4nnc[nH]4)cn23)s1` [Example 165] were, in that order, 1 to 100 nM and 1 to 100 nM. The like results for `Cc1ccc(-c2cnc3c(-n4nnnc4C4CC4)cc(C(=O)N[C@@H](C)c4nnc[nH]4)cn23)s1` [Example 167] were, in that order, 1 to 100 nM and 100 to 1000 nM.

Source of the values: US9908879B2, “P2X3 and/or P2X2/3 compounds and methods” (Asana Biosciences, LLC, priority 2013, dated 2018).
